Test results: patent US20110160146A1, “Conjungation of Small Molecules to Octaarginine Transporters for Overcoming Multi-Drug Resistance” (National Institute of Health (NIH), priority 2008, published 2011)
Non-standard residues stand in square brackets, D forms with d. Residues, ends and D or L forms follow the SMILES beside them. *: point of attachment. Paclitaxel(2'-OCO(CH2)3S) = CC(=O)O[C@H]1C(=O)[C@@]2(C)[C@H]([C@H](OC(=O)c3ccccc3)[C@]3(O)C[C@H](OC(=O)[C@H](OC(=O)CCCS*)[C@@H](NC(=O)c4ccccc4)c4ccccc4)C(C)=C1C3(C)C)[C@]1(OC(C)=O)CO[C@@H]1C[C@@H]2O; X2 = CC(=O)O[C@H]1C(=O)[C@@]2(C)[C@H]([C@H](OC(=O)c3ccccc3)[C@]3(O)C[C@H](OC(=O)[C@H](OC(=O)OCCS*)[C@@H](NC(=O)c4ccccc4)c4ccccc4)C(C)=C1C3(C)C)[C@]1(OC(C)=O)CO[C@@H]1C[C@@H]2O; X1 = CC(=O)O[C@H]1C(=O)[C@]2(C)[C@@H](OC(=O)CCCS*)C[C@H]3OC[C@@]3(OC(C)=O)[C@H]2[C@H](OC(=O)c2ccccc2)[C@]2(O)C[C@H](OC(=O)[C@H](O)[C@@H](NC(=O)c3ccccc3)c3ccccc3)C(C)=C1C2(C)C; X3 = O=C(OCCCS*)Oc1ccc(-c2cn3c(=O)c(Cc4ccccc4)nc-3c(Cc3ccccc3)[nH]2)cc1

Key:
[1] = Hydrolytic stability (HBS, pH 7.4, 37° C.); type: physicochemical
Method: A conjugate in which a drug to be delivered and a transporter are linked by a specifically cleavable or specifically releasable linker will have a half-life. The term “half-life” in this context refers to the amount of time required for one half of the amount of conjugate to become dissociated to release the free drug. The “accelerated” (37° C.) hydrolytic half-lives of the conjugates ranged from 19 to 97 hours, extending well beyond the incubation times (≦20 minutes) used for cell assays. Stabilities of the conjugates as solids at room temperature extend for months. […] The half-life of a conjugate can be “tuned” or modified, according to the invention, as described below.
The “accelerated” (37° C.) hydrolytic half-lives of the tetra- and octaarginine conjugates ranged from 19 to 97 hours, extending well beyond the incubation times (s 20 minutes) used for cell assays. Stability as a solid at room temperature extends for months. […] The activities of various conjugate-linker combinations were evaluated using a panel of human cancer cells, leading to the identification of ester-linked conjugates 2a and 3a as preferred candidates (Table 2).

MCF-7-pgp = experiment: Cell cytotoxicity assay (IC50), MCF-7-pgp; conditions: read-out: IC50 concentration; MCF-7-pgp (Pgp transfected); 20 min incubation, washed, 72 hr drug-free media
Method: (§1) After 72 hours, the cytotoxicity of the relevant compound was determined by an MTT based assay.
(§2) Within the panel of human cancer cells, there were three sets of related sensitive and resistant cell lines, the latter based wholly or in part on Pgp-mediated efflux. These resistant lines were either created through stable transfection of MCF-7 cells with Pgp (MCF-7-Pgp), or by selection through exposure of OVCA429 and OVCA433 cells to taxol (OVCA429T and OVCA433T)^19 or taxotere (OVCA429TxT and OVCA433TxT), creating a complex MDR phenotype including Pgp upregulation.
(§3) Cell Lines; SKOV-3 cells were obtained from ATCC; UCI-101 and UCI-107 cell lines were obtained from Drs. P. DiSaia and A. Manetta, University of California; MCF-7 and MCF-7-Pgp were obtained from Dr. D. Piwnica-Worms, Washington University; OVCA429, OVCA433 and the taxane resistant derivatives of these cells (OVCA429T, OVCA429TxT, OVCA433T and OVCA433TxT) were obtained from Dr. B. Sikic, Stanford University. All cells were grown in DMEM with 10% FBS.
(§4) Cell Cytotoxicity Assay. The cytotoxicity of relevant compounds was determined by IC50 assay. Cells were seeded overnight into 96-well plates, and then incubated with a serial dilution of the indicated compound for 20 min, before washing twice with fresh media, and incubation at 37° C. for 72 hr in drug-free media. The IC50 values were determined as the concentration of compound required to inhibit the viability of the cell layer by 50% relative to untreated, and cell-free control wells (100 and 0% viability respectively) determined from semi-logarithmic dose response curves. […] Bioluminescence was determined using an IVIS 50 system (Caliper Life Sciences, Alameda, Calif.). Each compound and dilution was tested in triplicate per experiment, with each experiment reproduced three times.

OVCA 429 = experiment: cells; conditions: read-out: IC50 concentration; OVCA 429; 20 min incubation, washed, 72 hr drug-free media
Method: as §1, §3, §4

MCF-7 = experiment: cells; conditions: read-out: IC50 concentration; MCF-7; 20 min incubation, washed, 72 hr drug-free media
Method: as §1, §3, §4

UCI-101 luc = experiment: cells; conditions: read-out: IC50 concentration; UCI-101 luc; 20 min incubation, washed, 72 hr drug-free media; MTT assay or luciferase activity
Method: as §1, §3, §4

UCI-107 luc = experiment: cells; conditions: read-out: IC50 concentration; UCI-107 luc; 20 min incubation, washed, 72 hr drug-free media; MTT assay or luciferase activity
Method: as §1, §3, §4

SKOV-3 = experiment: cells; conditions: read-out: IC50 concentration; SKOV-3; 20 min incubation, washed, 72 hr drug-free media
Method: as §1, §3, §4

OVCA 433 = experiment: cells; conditions: read-out: IC50 concentration; OVCA 433; 20 min incubation, washed, 72 hr drug-free media
Method: as §1, §3, §4

OVCA 429TxT = experiment: cells; conditions: read-out: IC50 concentration; OVCA 429TxT (taxotere selected); 20 min incubation, washed, 72 hr drug-free media
Method: as §1, §2, §3, §4

OVCA 429T = experiment: cells; conditions: read-out: IC50 concentration; OVCA 429T (taxol resistant); 20 min incubation, washed, 72 hr drug-free media
Method: as §1, §2, §3, §4

OVCA 433T = experiment: cells; conditions: read-out: IC50 concentration; OVCA 433T (taxol resistant); 20 min incubation, washed, 72 hr drug-free media
Method: as §1, §2, §3, §4

OVCA 433TxT = experiment: cells; conditions: read-out: IC50 concentration; OVCA 433TxT (taxotere selected); 20 min incubation, washed, 72 hr drug-free media
Method: as §1, §2, §3, §4

[2] = Method: FIG. 2. Effect of octaarginine (r8) conjugation on biodistribution of drug. […] (a) Representative image of treated mice at 40 min post injection. (b) Total signal per mouse at times post injection (average of two experiments).
Biolumninescence signal was determined at regular time points immediately after injection using an IVIS 200 system (Caliper Life Sciences, Alameda, Calif.).

OVCA429 cells = experiment: Cell cycle assay, OVCA429; type: cell-based, human; set-up: dose or concentration left out as unconfirmed; conditions: analysis after 24 hr, 7-AAD flow cytometry
Method: FIG. 1. Mechanisms of action of octaarginine taxol conjugates. (a) Tubulin polymerization assay.
The percentage of cells in G2/M was recorded. Data from 3 separate experiments were combined.
Statistical significance was determined as p<0.05.

CC(=O)N[C@H](CSSCCCC(=O)O[C@H]1C[C@H]2OC[C@@]2(OC(C)=O)[C@H]2[C@H](OC(=O)c3ccccc3)[C@]3(O)C[C@H](OC(=O)[C@H](O)[C@@H](NC(=O)c4ccccc4)c4ccccc4)C(C)=C([C@@H](OC(C)=O)C(=O)[C@]12C)C3(C)C)C(=O)N[C@H](CCCNC(=N)N)C(=O)N[C@H](CCCNC(=N)N)C(=O)N[C@H](CCCNC(=N)N)C(=O)N[C@H](CCCNC(=N)N)C(N)=O [3b, Taxol C7 ester tetraarginine conjugate]
half-life [1]: 68 h

CC(=O)N[C@H](CSSCCOC(=O)O[C@@H](C(=O)O[C@H]1C[C@@]2(O)[C@@H](OC(=O)c3ccccc3)[C@@H]3[C@]4(OC(C)=O)CO[C@@H]4C[C@H](O)[C@@]3(C)C(=O)[C@H](OC(C)=O)C(=C1C)C2(C)C)[C@@H](NC(=O)c1ccccc1)c1ccccc1)C(=O)N[C@H](CCCNC(=N)N)C(=O)N[C@H](CCCNC(=N)N)C(=O)N[C@H](CCCNC(=N)N)C(=O)N[C@H](CCCNC(=N)N)C(=O)N[C@H](CCCNC(=N)N)C(=O)N[C@H](CCCNC(=N)N)C(=O)N[C@H](CCCNC(=N)N)C(=O)N[C@H](CCCNC(=N)N)C(N)=O [4a, Taxol C2′ octaarginine conjugate] (Ac-[dC](X2)[dR][dR][dR][dR][dR][dR][dR][dR]-NH2)
half-life [1]: 32 h

CC(=O)N[C@H](CSSCCCC(=O)O[C@@H](C(=O)O[C@H]1C[C@@]2(O)[C@@H](OC(=O)c3ccccc3)[C@@H]3[C@]4(OC(C)=O)CO[C@@H]4C[C@H](O)[C@@]3(C)C(=O)[C@H](OC(C)=O)C(=C1C)C2(C)C)[C@@H](NC(=O)c1ccccc1)c1ccccc1)C(=O)N[C@H](CCCNC(=N)N)C(=O)N[C@H](CCCNC(=N)N)C(=O)N[C@H](CCCNC(=N)N)C(=O)N[C@H](CCCNC(=N)N)C(=O)N[C@H](CCCNC(=N)N)C(=O)N[C@H](CCCNC(=N)N)C(=O)N[C@H](CCCNC(=N)N)C(=O)N[C@H](CCCNC(=N)N)C(N)=O [2a, Taxol C2′ ester octaarginine conjugate] (Ac-[dC](Paclitaxel(2'-OCO(CH2)3S))[dR][dR][dR][dR][dR][dR][dR][dR]-NH2)
half-life [1]: 23 h
IC50 (MCF-7-pgp): 151 nM
IC50 (OVCA 429): 42 nM
IC50 (MCF-7): 40 nM
IC50 (UCI-101 luc): 58 nM
IC50 (UCI-107 luc): 92 nM
IC50 (SKOV-3): 11 nM
IC50 (OVCA 433): 21 nM
IC50 (OVCA 429TxT): 101 nM
IC50 (OVCA 429T): 420 nM
IC50 (OVCA 433T): 131 nM
IC50 (OVCA 433TxT): 2980 nM

CC(=O)N[C@H](CSSCCOC(=O)O[C@@H](C(=O)O[C@H]1C[C@@]2(O)[C@@H](OC(=O)c3ccccc3)[C@@H]3[C@]4(OC(C)=O)CO[C@@H]4C[C@H](O)[C@@]3(C)C(=O)[C@H](OC(C)=O)C(=C1C)C2(C)C)[C@@H](NC(=O)c1ccccc1)c1ccccc1)C(=O)N[C@H](CCCNC(=N)N)C(=O)N[C@H](CCCNC(=N)N)C(=O)N[C@H](CCCNC(=N)N)C(=O)N[C@H](CCCNC(=N)N)C(N)=O [4b, Taxol C2′ tetraarginine conjugate]
half-life [1]: 26 h

CC(=O)N[C@H](CSSCCCOC(=O)Oc1ccc(-c2cn3c(=O)c(Cc4ccccc4)nc-3c(Cc3ccccc3)[nH]2)cc1)C(=O)N[C@H](CCCNC(=N)N)C(=O)N[C@H](CCCNC(=N)N)C(=O)N[C@H](CCCNC(=N)N)C(=O)N[C@H](CCCNC(=N)N)C(=O)N[C@H](CCCNC(=N)N)C(=O)N[C@H](CCCNC(=N)N)C(=O)N[C@H](CCCNC(=N)N)C(=O)N[C@H](CCCNC(=N)N)C(N)=O [compound 6, Coelenterazine octaarginine conjugate] (Ac-[dC](X3)[dR][dR][dR][dR][dR][dR][dR][dR]-NH2)
half-life [1]: 0.117 h

CC(=O)N[C@H](CSSCCCCOC(=O)Oc1ccc2nc(C3=N[C@@H](C(=O)O)CS3)sc2c1)C(=O)N[C@H](CCCNC(=N)N)C(=O)N[C@H](CCCNC(=N)N)C(=O)N[C@H](CCCNC(=N)N)C(=O)N[C@H](CCCNC(=N)N)C(=O)N[C@H](CCCNC(=N)N)C(=O)N[C@H](CCCNC(=N)N)C(=O)N[C@H](CCCNC(=N)N)C(=O)N[C@H](CCCNC(=N)N)C(N)=O [compound 7, Luciferin octaarginine conjugate]
half-life [1]: 30 h
calculated area under the curve (total light production) ([2]; intraperitoneal injection, luciferase transgenic mice): similar
biodistribution after intraperitoneal injection ([2]; transgenic mice ubiquitously expressing Firefly luciferase, equimolar to 5 mg/kg): did not distribute throughout the body, remaining instead near the site of administration

CC(=O)N[C@H](CSSCCCC(=O)O[C@H]1C[C@H]2OC[C@@]2(OC(C)=O)[C@H]2[C@H](OC(=O)c3ccccc3)[C@]3(O)C[C@H](OC(=O)[C@H](O)[C@@H](NC(=O)c4ccccc4)c4ccccc4)C(C)=C([C@@H](OC(C)=O)C(=O)[C@]12C)C3(C)C)C(=O)N[C@H](CCCNC(=N)N)C(=O)N[C@H](CCCNC(=N)N)C(=O)N[C@H](CCCNC(=N)N)C(=O)N[C@H](CCCNC(=N)N)C(=O)N[C@H](CCCNC(=N)N)C(=O)N[C@H](CCCNC(=N)N)C(=O)N[C@H](CCCNC(=N)N)C(=O)N[C@H](CCCNC(=N)N)C(N)=O [3a, Taxol C7 ester octaarginine conjugate] (Ac-[dC](X1)[dR][dR][dR][dR][dR][dR][dR][dR]-NH2)
half-life [1]: 97 h
IC50 (MCF-7-pgp): 83 nM
IC50 (OVCA 429): 125 nM
IC50 (MCF-7): 146 nM
IC50 (UCI-101 luc): 170 nM
IC50 (UCI-107 luc): 233 nM
IC50 (SKOV-3): 24 nM
IC50 (OVCA 433): 62 nM
IC50 (OVCA 429TxT): 93 nM
IC50 (OVCA 429T): 225 nM
IC50 (OVCA 433T): 95 nM
IC50 (OVCA 433TxT): 1280 nM

CC(=O)N[C@H](CSSCCCC(=O)O[C@@H](C(=O)O[C@H]1C[C@@]2(O)[C@@H](OC(=O)c3ccccc3)[C@@H]3[C@]4(OC(C)=O)CO[C@@H]4C[C@H](O)[C@@]3(C)C(=O)[C@H](OC(C)=O)C(=C1C)C2(C)C)[C@@H](NC(=O)c1ccccc1)c1ccccc1)C(=O)N[C@H](CCCNC(=N)N)C(=O)N[C@H](CCCNC(=N)N)C(=O)N[C@H](CCCNC(=N)N)C(=O)N[C@H](CCCNC(=N)N)C(N)=O [2b, Taxol C2′ ester tetraarginine conjugate]
half-life [1]: 19 h
percentage of cells in the G2/M phase relative to taxol (OVCA429 cells): significantly greater percentage
